Source: patent US20070249620A1, “Urea Derivative” (priority 2004, published 2007)

What was measured:
mouse DGAT1 = biological target: T1, mouse DGAT1 (Mus musculus, UniProt Q9Z2A7); assay: DGAT1 inhibitory effect test (microsome fraction, [14C]-oleoyl-CoA, triglyceride radioactivity by TLC); type: biochemical; conditions: 0.5 h; concentration of the test compound 0.1 μg/ml; mouse DGAT1 microsomes, 23° C., 30 minutes; read-out: Inhibitory ratio
T1 construct: made in house; host or cells: insect cells (High Five, Sf9, Sf21, etc.), baculovirus expression system (Invitrogen)
T1 sequence (Q9Z2A7 1-498): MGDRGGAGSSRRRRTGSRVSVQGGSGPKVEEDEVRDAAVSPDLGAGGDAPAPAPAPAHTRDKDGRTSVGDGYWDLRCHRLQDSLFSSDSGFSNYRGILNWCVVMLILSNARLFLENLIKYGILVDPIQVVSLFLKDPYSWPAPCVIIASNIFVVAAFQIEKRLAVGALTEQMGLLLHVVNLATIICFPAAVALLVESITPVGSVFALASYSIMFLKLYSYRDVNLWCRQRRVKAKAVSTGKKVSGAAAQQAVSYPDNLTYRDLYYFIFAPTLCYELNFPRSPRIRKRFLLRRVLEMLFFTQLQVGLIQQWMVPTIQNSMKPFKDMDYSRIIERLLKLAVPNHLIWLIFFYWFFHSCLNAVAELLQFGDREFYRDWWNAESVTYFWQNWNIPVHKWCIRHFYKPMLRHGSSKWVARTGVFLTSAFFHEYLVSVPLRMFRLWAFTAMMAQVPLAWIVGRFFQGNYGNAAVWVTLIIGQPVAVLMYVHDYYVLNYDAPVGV
Procedure: The cDNA which encodes mouse DGAT1 was cloned from a mouse cDNA library by polymerase chain reaction (hereinafter referred to as “PCR”) and introduced into an insect cell virus vector (baculovirus expression system, Invitrogen). After insect cells (High Five, Sf9, Sf21, etc., Invitrogen) were infected with the virus, the cells were collected in buffer A [0.1M sucrose, 50 mM KCl, 40 mM potassium phosphate (pH 7.4), 30 mM EDTA, 1% Protease inhibitor cocktail (SIGMA, P-8340)] and crushed with a Polytron homogenizer. The supernatant obtained by subjecting the homogenate to low speed centrifugal processing (10,000 ×g, 30 minutes) was further subjected to higher-speed centrifugal processing (100,000 ×g, 60 minutes) and the precipitate was resuspended in buffer A as the microsome fraction and used as DGAT1 enzyme. The DGAT1 enzyme was divided into small volumes and stored at −80° C.
(2) DGAT1 Inhibitory Effect Test
The reaction liquid of the following composition [175 mM Tris-HCl (pH 8.0), 8 mM MgCl2, 1 mg/ml BSA, 0.5 mM 1,2-dioleoyl-sn-glycerol (EtOH solution of 10-fold concentration, 10% added), 30 μM[14C]-oleoyl-CoA (about 50 mCi/mmol), 0.5% triton X-100, DGAT1 enzyme (10 μg) obtained in Test Example 1(1), test compound or vehicle (DMSO/MeOH, 7:3 solution, 5% added), total volume 50 μl] was incubated at room temperature (23° C.) for 30 minutes. A reaction terminating solution (70 μl) consisting of isopropanol/1-heptane/water (80:20:2, v/v/v) was added to the reaction solution and stirred, and subsequently stirred with water (30 μl) and 1-heptane (100 μl). The 1-heptane layer (50 μl) was spotted onto a TLC plate and developed with a developing solvent consisting of 1-hexane/diethyl ether/acetic acid (85:15:1, v/v/v). Radioactivity of triglyceride fraction was quantified by BAS2000 bio image analyzer (Fuji Film) and the inhibitory effect of the test compounds was calculated by the following formula through comparison with control. Here, radioactivity at no reaction (0 minutes incubation) was assumed as background. Inhibitory ratio=100−[(Radioactivity when test compound was added)−(Background)]/[(Radioactivity by control)−(Background)]×100

Compound CCOc1ccc(F)cc1NC(=O)Nc1ccc(N2CCN(C(=O)OC(C)(C)C)CC2)nc1 [Example 46, 4-{5-[3-(2-ethoxy-5-fluoro-phenyl)-ureido]-pyridin-2-yl}-piperazine-1-carboxylic acid tert-butyl ester] has an inhibition at 0.1 µg/mL (mouse DGAT1) of at least 50% and a melting point of 180 °C.

With COc1ccc(C)cc1NC(=O)Nc1ccc(N2CCN(C(=O)Nc3ccccc3C(F)(F)F)CC2)cc1 [Example 53, 4-{4-[3-(2-methoxy-5-methyl-phenyl)-ureido]-phenyl}-piperazine-1-carboxylic acid (2-trifluoromethyl-phenyl)-amide] the inhibition at 0.1 µg/mL (mouse DGAT1) was at least 50% and the melting point was 170 to 171 °C.

For COc1ccc(C)cc1NC(=O)Nc1ccc(N2CCN(C(=O)Nc3ccccc3C)CC2)cc1 [Example 54, 4-{4-[3-(2-methoxy-5-methyl-phenyl)-ureido]-phenyl}-piperazine-1-carboxylic acid o-tolylamide], the inhibition at 0.1 µg/mL (mouse DGAT1) was at least 50% and the melting point was 209 to 211 °C.

In the case of COc1ccc(C)cc1NC(=O)Nc1ccc(N2CCN(C(=O)Nc3ccccc3Br)CC2)cc1 [Example 57, 4-{4-[3-(2-methoxy-5-methyl-phenyl)-ureido]-phenyl}-piperazine-1-carboxylic acid (2-bromo-phenyl)-amide], the inhibition at 0.1 µg/mL (mouse DGAT1) was at least 50% and the melting point was 212 to 214 °C.

With CCc1ccccc1NC(=O)N1CCN(c2ccc(NC(=O)Nc3cc(C)ccc3OC)cc2)CC1 [Example 58, 4-{4-[3-(2-methoxy-5-methyl-phenyl)-ureido]-phenyl}-piperazine-1-carboxylic acid (2-ethyl-phenyl)-amide] the inhibition at 0.1 µg/mL (mouse DGAT1) was at least 50% and the melting point was 220 to 221 °C.

Work on COc1ccc(C)cc1NC(=O)Nc1ccc(N2CCN(C(=O)Nc3c(C)cccc3Cl)CC2)cc1 [Example 59, 4-{4-[3-(2-methoxy-5-methyl-phenyl)-ureido]-phenyl}-piperazine-1-carboxylic acid (2-chloro-6-methyl-phenyl)-amide] yielded an inhibition at 0.1 µg/mL (mouse DGAT1) of at least 50% and a melting point of 143 to 145 °C.

For COc1ccc(C)cc1NC(=O)Nc1ccc(N2CCN(C(=O)Nc3c(C)cccc3[N+](=O)[O-])CC2)cc1 [Example 60, 4-{4-[3-(2-methoxy-5-methyl-phenyl)-ureido]-phenyl}-piperazine-1-carboxylic acid (2-methyl-6-nitro-phenyl)-amide], the inhibition at 0.1 µg/mL (mouse DGAT1) was at least 50% and the melting point was 213 to 215 °C.

COc1ccc(C)cc1NC(=O)Nc1ccc(N2CCN(C(=O)Nc3ccccc3C#N)CC2)cc1 [Example 61, 4-{4-[3-(2-methoxy-5-methyl-phenyl)-ureido]-phenyl}-piperazine-1-carboxylic acid (2-cyano-phenyl)-amide] gave an inhibition at 0.1 µg/mL (mouse DGAT1) of at least 50% and a melting point of 210 to 212 °C.

In the case of COc1ccc(C)cc1NC(=O)Nc1ccc(N2CCN(C(=O)Nc3c(C)cccc3C)CC2)cc1 [Example 62, 4-{4-[3-(2-methoxy-5-methyl-phenyl)-ureido]-phenyl}-piperazine-1-carboxylic acid (2,6-dimethyl-phenyl)-amide], the inhibition at 0.1 µg/mL (mouse DGAT1) was at least 50% and the melting point was 212 to 214 °C.

In the case of COc1ccc(C)cc1NC(=O)Nc1ccc(N2CCN(C(=O)Nc3c(F)cccc3C(F)(F)F)CC2)cc1 [Example 64, 4-{4-[3-(2-methoxy-5-methyl-phenyl)-ureido]-phenyl}-piperazine-1-carboxylic acid (2-fluoro-6-trifluoromethyl-phenyl)-amide], the inhibition at 0.1 µg/mL (mouse DGAT1) was at least 50% and the melting point was 134 to 136 °C.

Compound COc1ccc(C)cc1NC(=O)Nc1ccc(N2CCN(C(=O)Nc3c(Cl)cccc3Cl)CC2)cc1 [Example 65, 4-{4-[3-(2-methoxy-5-methyl-phenyl)-ureido]-phenyl}-piperazine-1-carboxylic acid (2,6-dichloro-phenyl)-amide] has an inhibition at 0.1 µg/mL (mouse DGAT1) of at least 50% and a melting point of 210 to 221 °C.

COc1ccc(C)cc1NC(=O)Nc1ccc(N2CCN(C(=O)Nc3c(Cl)cccc3C(F)(F)F)CC2)cc1 [Example 66, 4-{4-[3-(2-methoxy-5-methyl-phenyl)-ureido]-phenyl}-piperazine-1-carboxylic acid (2-chloro-6-trifluoromethyl-phenyl)-amide] showed an inhibition at 0.1 µg/mL (mouse DGAT1) of at least 50% and a melting point of 196 to 197 °C.

COc1ccc(NC(=O)N2CCN(c3ccc(NC(=O)Nc4cc(C)ccc4OC)cc3)CC2)c(C)c1 [Example 73, 4-{4-[3-(2-methoxy-5-methyl-phenyl)-ureido]-phenyl}-piperazine-1-carboxylic acid (4-methoxy-2-methyl-phenyl)-amide] gave an inhibition at 0.1 µg/mL (mouse DGAT1) of at least 50% and a melting point of 193 to 195 °C.

For CCCCc1ccc(NC(=O)N2CCN(c3ccc(NC(=O)Nc4cc(C)ccc4OC)cc3)CC2)c(C)c1 [Example 75, 4-{4-[3-(2-methoxy-5-methyl-phenyl)-ureido]-phenyl}-piperazine-1-carboxylic acid (4-butyl-2-methyl-phenyl)-amide], the inhibition at 0.1 µg/mL (mouse DGAT1) was at least 50% and the melting point was 172 to 173 °C.

Work on COc1ccc(C)cc1NC(=O)Nc1ccc(N2CCN(C(=O)Nc3ccc(C)cc3Cl)CC2)cc1 [Example 76, 4-{4-[3-(2-methoxy-5-methyl-phenyl)-ureido]-phenyl}-piperazine-1-carboxylic acid (2-chloro-4-methyl-phenyl)-amide] yielded an inhibition at 0.1 µg/mL (mouse DGAT1) of at least 50% and a melting point of 186 to 187 °C.

For COc1ccc(Cl)cc1NC(=O)Nc1ccc(N2CCN(C(=O)Nc3c(F)cccc3F)CC2)cc1 [Example 77, 4-{4-[3-(5-chloro-2-methoxy-phenyl)-ureido]-phenyl}-piperazine-1-carboxylic acid (2,6-difluoro-phenyl)-amide], the inhibition at 0.1 µg/mL (mouse DGAT1) was at least 50% and the melting point was 230 to 232 °C.

COc1ccc(Cl)cc1NC(=O)Nc1ccc(N2CCN(C(=O)Nc3ccccc3Cl)CC2)cc1 [Example 78, 4-{4-[3-(5-chloro-2-methoxy-phenyl)-ureido]-phenyl}-piperazine-1-carboxylic acid (2-chloro-phenyl)-amide] gave an inhibition at 0.1 µg/mL (mouse DGAT1) of at least 50% and a melting point of 231 to 233 °C.

In the case of COc1ccc(Cl)cc1NC(=O)Nc1ccc(N2CCN(C(=O)Nc3c(C)cccc3Cl)CC2)cc1 [Example 79, 4-{4-[3-(5-chloro-2-methoxy-phenyl)-ureido]-phenyl}-piperazine-1-carboxylic acid (2-chloro-6-methyl-phenyl)-amide], the inhibition at 0.1 µg/mL (mouse DGAT1) was at least 50% and the melting point was 225 to 227 °C.

Work on CCOc1ccccc1NC(=O)Nc1ccc(N2CCN(C(=O)Nc3ccccc3C(F)(F)F)CC2)cc1 [Example 80, 4-{4-[3-(2-ethoxy-phenyl)-ureido]-phenyl}-piperazine-1-carboxylic acid (2-trifluoromethyl-phenyl)-amide] yielded an inhibition at 0.1 µg/mL (mouse DGAT1) of at least 50% and a melting point of 201 to 203 °C.

CCOc1ccccc1NC(=O)Nc1ccc(N2CCN(C(=O)Nc3ccccc3C)CC2)cc1 [Example 81, 4-{4-[3-(2-ethoxy-phenyl)-ureido]-phenyl}-piperazine-1-carboxylic acid o-tolylamide] gave an inhibition at 0.1 µg/mL (mouse DGAT1) of at least 50% and a melting point of 206 to 208 °C.

Work on CCOc1ccccc1NC(=O)Nc1ccc(N2CCN(C(=O)Nc3c(C)cccc3Cl)CC2)cc1 [Example 82, 4-{4-[3-(2-ethoxy-phenyl)-ureido]-phenyl}-piperazine-1-carboxylic acid (2-chloro-6-methyl-phenyl)-amide] yielded an inhibition at 0.1 µg/mL (mouse DGAT1) of at least 50% and a melting point of 215 to 217 °C.

Work on CCOc1ccc(C)cc1NC(=O)Nc1ccc(N2CCN(C(=O)Nc3ccccc3C(F)(F)F)CC2)cc1 [Example 83, 4-{4-[3-(2-ethoxy-5-methyl-phenyl)-ureido]-phenyl}-piperazine-1-carboxylic acid (2-trifluoromethyl-phenyl)-amide] yielded an inhibition at 0.1 µg/mL (mouse DGAT1) of at least 50% and a melting point of 219 to 220 °C.
